# Where two headings read alike, the source gives them in different places.
# How the values were obtained:
# [1] = molecular target: human leukocyte elastase (HLE); set-up: method as in PMID 18924217; details: activity of extracts; read-out: Enzyme Inhibition HLE IC50; cited from earlier work
# Thrombin = molecular target: T1, Thrombin (Bos taurus, UniProt P00735); assay: thrombin inhibition assay; type: biochemical; set-up: key: - not active; */** small/medium activity; */** small/medium activity; details: highest concentration 45.4 μg/mL
# T1 construct: purchased Sigma-Aldrich T4648
# [2] = molecular target: T2, protein phosphatase 1 (PP1) (Oryctolagus cuniculus, UniProt P62139); assay: protein phosphatase 1 inhibition assay; type: biochemical; set-up: key: - not active; */** small/medium activity; */** small/medium activity; details: highest concentration 45.4 μg/mL
# T2 construct: purchased England Biolabs, Hitchin, UK (New England Biolabs) 754S
# T2 sequence (P62139 whole entry): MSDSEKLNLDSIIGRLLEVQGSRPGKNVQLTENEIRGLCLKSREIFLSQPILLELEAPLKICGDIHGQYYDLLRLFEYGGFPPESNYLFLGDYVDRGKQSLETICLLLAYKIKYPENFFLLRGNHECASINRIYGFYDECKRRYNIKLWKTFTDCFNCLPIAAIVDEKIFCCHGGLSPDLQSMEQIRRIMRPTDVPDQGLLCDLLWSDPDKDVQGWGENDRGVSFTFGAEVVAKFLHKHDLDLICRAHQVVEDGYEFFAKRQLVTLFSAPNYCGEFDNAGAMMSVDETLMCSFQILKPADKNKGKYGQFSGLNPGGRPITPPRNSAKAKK
# [3] = molecular target: α-chymotrypsin from bovine pancreas (Bos taurus, UniProt P00766); assay: chymotrypsin inhibition assay; type: biochemical; set-up: key to Enzyme Inhibition Chymotrypsin (activity class): - not active; */** small/medium activity; */** small/medium activity; details: for Enzyme Inhibition Chymotrypsin (activity class): class symbols
# [4] = molecular target: T3, trypsin from porcine pancreas (Sus scrofa, UniProt P00761); assay: trypsin inhibition assay; type: biochemical; set-up: key: - not active; */** small/medium activity; */** small/medium activity; details: class symbols
# T3 construct: purchased Sigma-Aldrich T0303; host or cells: porcine pancreas
# T3 sequence (P00761 9-231): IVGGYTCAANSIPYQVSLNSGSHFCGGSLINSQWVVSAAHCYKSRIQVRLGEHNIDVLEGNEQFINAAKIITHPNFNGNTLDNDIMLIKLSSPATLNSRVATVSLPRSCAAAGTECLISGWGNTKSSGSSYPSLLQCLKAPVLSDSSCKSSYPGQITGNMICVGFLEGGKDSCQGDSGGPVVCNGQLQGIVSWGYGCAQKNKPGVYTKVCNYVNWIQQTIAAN
# [5] = molecular target: T4, elastase from porcine pancreas (Sus scrofa, UniProt P00772); assay: elastase inhibition assay; type: biochemical; set-up: key: - not active; */** small/medium activity; */** small/medium activity; details: highest concentration 45.4 μg/mL
# T4 construct: purchased Sigma-Aldrich E0258; host or cells: porcine pancreas
# T4 sequence (P00772 27-266): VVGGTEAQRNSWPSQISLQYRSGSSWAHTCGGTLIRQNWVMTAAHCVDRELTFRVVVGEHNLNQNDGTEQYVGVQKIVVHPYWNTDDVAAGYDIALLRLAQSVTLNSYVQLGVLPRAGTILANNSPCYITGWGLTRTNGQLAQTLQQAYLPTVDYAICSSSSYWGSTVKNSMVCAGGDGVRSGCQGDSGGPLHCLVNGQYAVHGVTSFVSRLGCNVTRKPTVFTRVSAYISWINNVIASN
# [6] = test system: MCF-7 breast cancer cells; assay: MTT cytotoxicity assay; type: cell-based; details: 24-h exposure, 0 to 500 μg/mL
# Protocol: For the test, two CPs were selected: Arg^2-containing CP962 and Tyr^2-containing CP985. MCF-7 breast cancer cells were seeded at 7.5 × 10^3 cells/100 μL in a 96-well plates and incubated at 37 °C, 5% CO2 for 24 h. The cells were then treated for a further 24 h with CP962 and CP985 (0 to 500 μg/mL). After 24 h, sterile-filtered 3-(4,5-dimethylthiazol-2-yl)-2,5-diphenyltetrazolium bromide solution (MTT; 1 mg/mL) was added to each well. After 4 h incubation at 37 °C in the dark, the MTT solution was removed and formazan crystals solubilized in DMSO. The plates were shaken for 20 min, in the dark, at room temperature and absorbance was measured at 560 nm (Synergy/HT, BIOTEK, Wnooski, VT, USA). For each CP, three independent experiments were carried out and each treatment consisted of six replicates per plate. Bar charts were used to represent the viability of MCF-7 cells treated with CP962 and CP985, compared to the control (i.e., untreated cells) that represented 100% cell viability.
# small crustaceans = test system: small crustaceans; set-up: method as in doi:10.2216/i0031-8884-35-6S-111.1, PMID 20405925, PMID 12662108; details: cited from earlier work
# mice = details: administered intraperitoneally at concentrations up to 1000 µg/kg b.w.; cited from earlier work
# Chymotrypsin = details: cited from earlier work
Compound,IC50 [1] [µM],Enzyme Inhibition Thrombin (activity class) (Thrombin),Enzyme Inhibition Protein Phosphatase 1 (activity class) [2],Enzyme Inhibition Chymotrypsin (activity class) [3],Enzyme Inhibition Trypsin (activity class) [4],Enzyme Inhibition Elastase (activity class) [5],further results
[Hmp+Leu+Ahp+Ile+MeTyr+Val]Cit+Ac [Insulapeptolide A],0.14,,,,,,
[Hmp+Leu+Ahp+Leu+MeTyr+Ile]Cit+Ac [Insulapeptolide B],0.1,,,,,,
"CCCC(=O)N[C@@H](CC(=O)O)C(=O)N[C@@H]1C(=O)N[C@@H](Cc2ccc(O)cc2)C(=O)N[C@H]2CC[C@@H](O)N(C2=O)[C@@H](Cc2ccccc2)C(=O)N(C)[C@@H](CCc2ccc(O)cc2)C(=O)N[C@@H](C(C)C)C(=O)O[C@@H]1C [CP 999, [Thr+Tyr+Ahp+Phe+MeHty+Val]Asp+BA]",,-,-,**,-,,
[Thr+Hph+Ahp+Thr+MeTyr+Val]Ser+Pro+BA [Insulapeptolide F],1.6,,,,,,
[Thr+Hph+Ahp+Thr+MeTyr+Ile]Ser+Pro+BA [Insulapeptolide H],2.7,,,,,,
"CCCCCCCC(=O)N[C@@H](CC(=O)O)C(=O)N[C@@H]1C(=O)N[C@@H](CCCNC(=N)N)C(=O)N[C@H]2CC[C@@H](O)N(C2=O)[C@@H](Cc2ccccc2)C(=O)N(C)[C@@H](CCc2ccc(O)cc2)C(=O)N[C@@H](C(C)C)C(=O)O[C@@H]1C [CP 1048, [Thr+Arg+Ahp+Phe+MeHty+Val]Asp+OA]",,-,-,*,**,-,
"CCCC(=O)NC(CC(=O)O)C(=O)NC1C(=O)NC(CCCNC(=N)N)C(=O)NC2CCC(O)N(C2=O)C(Cc2ccccc2)C(=O)N(C)C(Cc2ccccc2)C(=O)NC(C(C)C)C(=O)OC1C (stereo not shown) [CP 962, [Thr+Arg+Ahp+Phe+MePhe+Val]Asp+BA]",,-,-,-,**,-,cytotoxic effects on MCF-7 cells (MTT) [6]: no cytotoxic effects
Oscillapeptin J,,,,,,,acute effects in small crustaceans (small crustaceans): induced acute effects; harmful effects in mice (mice): did not induce any harmful effects
[Thr+Hph+Ahp+Thr+MeTyr+Ile]Ser+Pro+BA [Insulapeptolide E],3.2,,,,,,
"CCCC(=O)NC(CC(=O)O)C(=O)NC1C(=O)NC(Cc2ccc(O)cc2)C(=O)NC2CCC(O)N(C2=O)C(Cc2ccccc2)C(=O)N(C)C(Cc2ccc(O)cc2)C(=O)NC(C(C)C)C(=O)OC1C (stereo not shown) [CP 985, [Thr+Tyr+Ahp+Phe+MeTyr+Val]Asp+BA]",,-,-,,-,-,cytotoxic effects on MCF-7 cells (MTT) [6]: no cytotoxic effects; IC50 ([3]; read-out: Enzyme Inhibition (IC50 [µM]) Chymotrypsin): 0.26 µM
"CCCCCCCC(=O)N[C@@H](CC(=O)O)C(=O)N[C@@H]1C(=O)N[C@@H](CCCNC(=N)N)C(=O)N[C@H]2CC[C@@H](O)N(C2=O)[C@@H](Cc2ccccc2)C(=O)N(C)[C@@H](Cc2ccccc2)C(=O)N[C@@H](C(C)C)C(=O)O[C@@H]1C [CP 1018, [Thr+Arg+Ahp+Phe+MePhe+Val]Asp+OA]",,-,-,-,,-,
CC[C@H](C)[C@@H]1NC(=O)[C@H](Cc2ccc(O)cc2)N(C)C(=O)[C@H](Cc2ccccc2)N2C(=O)[C@H](CC[C@H]2O)NC(=O)[C@H](Cc2ccccc2)NC(=O)[C@@H](NC(=O)[C@@H](O)COP(=O)(O)O)[C@@H](C)OC1=O [micropeptin T20],,,,,,,IC50 (Chymotrypsin; read-out: chymotrypsin IC50): 0.0025 µM
"CCCC(=O)N[C@@H](CC(=O)O)C(=O)N[C@@H]1C(=O)N[C@@H](Cc2ccc(O)cc2)C(=O)N[C@H]2CC[C@@H](O)N(C2=O)[C@@H](Cc2ccccc2)C(=O)N(C)[C@@H](Cc2ccccc2)C(=O)N[C@@H](C(C)C)C(=O)O[C@@H]1C [CP 969, [Thr+Tyr+Ahp+Phe+MePhe+Val]Asp+BA]",,-,-,**,-,-,
"CCCCCC(=O)N[C@@H](CC(=O)O)C(=O)N[C@@H]1C(=O)N[C@@H](Cc2ccc(O)cc2)C(=O)N[C@H]2CC[C@@H](O)N(C2=O)[C@@H](Cc2ccccc2)C(=O)N(C)[C@@H](CCc2ccc(O)cc2)C(=O)N[C@@H](C(C)C)C(=O)O[C@@H]1C [CP 1027, [Thr+Tyr+Ahp+Phe+MeHty+Val]Asp+HA]",,-,-,,-,-,
"CC[C@H](C)[C@H]1C(=O)N(C)[C@@H](Cc2ccc(OC)cc2)C(=O)N[C@@H](C(C)C)C(=O)O[C@@H]2[C@H](C)CN(C(=O)[C@H](CCCNC(N)=O)NC(C)=O)[C@@H]2C(=O)N[C@@H](CC(C)C)C(=O)N[C@H]2CC[C@@H](O)N1C2=O [Insulapeptolide C, [Hmp+Leu+Ahp+Ile+diMeTyr+Val]Cit+Ac]",0.09,,,,,,
"CCCC(=O)N[C@@H](CC(=O)O)C(=O)N[C@@H]1C(=O)N[C@@H](CCCNC(=N)N)C(=O)N[C@H]2CC[C@@H](O)N(C2=O)[C@@H](Cc2ccccc2)C(=O)N(C)[C@@H](CCc2ccc(O)cc2)C(=O)N[C@@H](C(C)C)C(=O)O[C@@H]1C [CP 992, [Thr+Arg+Ahp+Phe+MeHty+Val]Asp+BA]",,-,-,,,-,
[Thr+Hph+Ahp+Thr+MePhe+Val]Ser+Pro+BA [Insulapeptolide G],3.5,,,,,,
"CCCC(=O)N[C@@H](CC(=O)O)C(=O)N[C@@H]1C(=O)N[C@@H](CCCNC(=N)N)C(=O)N[C@H]2CC[C@@H](O)N(C2=O)[C@@H](Cc2ccccc2)C(=O)N(C)[C@@H](Cc2ccc(O)cc2)C(=O)N[C@@H](C(C)C)C(=O)O[C@@H]1C [CP 978, [Thr+Arg+Ahp+Phe+MeTyr+Val]Asp+BA]",,-,-,,,-,
[Hmp+Leu+Ahp+Ile+diMeTyr+Ile]Cit+Ac [Insulapeptolide D],0.085,,,,,,
"CCCCCC(=O)N[C@@H](CC(=O)O)C(=O)N[C@@H]1C(=O)N[C@@H](CCCNC(=N)N)C(=O)N[C@H]2CC[C@@H](O)N(C2=O)[C@@H](Cc2ccccc2)C(=O)N(C)[C@@H](Cc2ccccc2)C(=O)N[C@@H](C(C)C)C(=O)O[C@@H]1C [CP 990, [Thr+Arg+Ahp+Phe+MePhe+Val]Asp+HA]",,-,-,-,**,-,
"CCCCCC(=O)N[C@@H](CC(=O)O)C(=O)N[C@@H]1C(=O)N[C@@H](CCCNC(=N)N)C(=O)N[C@H]2CC[C@@H](O)N(C2=O)[C@@H](Cc2ccccc2)C(=O)N(C)[C@@H](Cc2ccc(O)cc2)C(=O)N[C@@H](C(C)C)C(=O)O[C@@H]1C [CP 1006, [Thr+Arg+Ahp+Phe+MeTyr+Val]Asp+HA]",,-,-,*,**,-,
"CCCCCC(=O)N[C@@H](CC(=O)O)C(=O)N[C@@H]1C(=O)N[C@@H](Cc2ccc(O)cc2)C(=O)N[C@H]2CC[C@@H](O)N(C2=O)[C@@H](Cc2ccccc2)C(=O)N(C)[C@@H](Cc2ccc(O)cc2)C(=O)N[C@@H](C(C)C)C(=O)O[C@@H]1C [CP 1013, [Thr+Tyr+Ahp+Phe+MeTyr+Val]Asp+HA]",,-,-,**,-,-,
"CC(=O)N[C@@H](CCC(N)=O)C(=O)N[C@@H]1C(=O)N[C@@H](CC(C)C)C(=O)N[C@H]2CC[C@@H](O)N(C2=O)[C@@H](Cc2ccccc2)C(=O)N(C)[C@@H](Cc2ccc(O)cc2)C(=O)N[C@@H](C(C)C)C(=O)O[C@@H]1C [Nostopeptin BN920, [Thr+Leu+Ahp+Phe+MeTyr+Val]Gln+Ac]",,,,,,,IC50 (Chymotrypsin; read-out: Enzyme Inhibition Chymotrypsin IC50): 0.11 µM

# Source: PMC6070996 (Marine Drugs, 2018)
